Laboratory results from PubChem BioAssay (NCI).
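Exposure lasted 48 hours, with cells grown in 96-well plates and compounds tested at five concentrations. Definition used: TGI = concentration required for complete inhibition of growth.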

Columns and labels:
Test in all cases: NCI tumour cell line growth inhibition, 48 h
OVCAR-4 ovarian = test system: OVCAR-4 ovarian
SW-620 colon = test system: SW-620 colon
SK-MEL-2 melanoma = test system: SK-MEL-2 melanoma
HOP-62 NSCLC = test system: HOP-62 NSCLC
NCI-H522 lung = test system: NCI-H522 lung
SF-295 CNS = test system: SF-295 CNS
NCI-H226 lung = test system: NCI-H226 lung
NCI-H460 lung = test system: NCI-H460 lung
SF-268 CNS = test system: SF-268 CNS
SNB-75 CNS = test system: SNB-75 CNS
SK-OV-3 ovarian = test system: SK-OV-3 ovarian
HT29 colon = test system: HT29 colon
HCT-116 colon = test system: HCT-116 colon
KM20L2 colon = test system: KM20L2 colon
M14 melanoma = test system: M14 melanoma
SK-MEL-5 melanoma = test system: SK-MEL-5 melanoma
IGROV1 ovarian = test system: IGROV1 ovarian
SNB-78 CNS = test system: SNB-78 CNS
U251 CNS = test system: U251 CNS
UACC-257 melanoma = test system: UACC-257 melanoma
UACC-62 melanoma = test system: UACC-62 melanoma
TK-10 renal = test system: TK-10 renal
NCI-H23 lung = test system: NCI-H23 lung
OVCAR-3 ovarian = test system: OVCAR-3 ovarian
K-562 leukemia = test system: K-562 leukemia
EKVX NSCLC = test system: EKVX NSCLC
ACHN renal = test system: ACHN renal
DMS 114 small cell lung = test system: DMS 114 small cell lung
SK-MEL-28 melanoma = test system: SK-MEL-28 melanoma
RXF-631 renal = test system: RXF-631 renal
MOLT-4 leukemia = test system: MOLT-4 leukemia
XF 498 CNS = test system: XF 498 CNS
M19-MEL melanoma = test system: M19-MEL melanoma
COLO 205 colon = test system: COLO 205 colon
HOP-18 NSCLC = test system: HOP-18 NSCLC
LXFL 529 NSCLC = test system: LXFL 529 NSCLC
RXF 393 renal = test system: RXF 393 renal
HOP-92 NSCLC = test system: HOP-92 NSCLC
SN12C renal = test system: SN12C renal
SF-539 CNS = test system: SF-539 CNS
OVCAR-8 ovarian = test system: OVCAR-8 ovarian
CAKI-1 renal = test system: CAKI-1 renal
DLD-1 colon = test system: DLD-1 colon
MALME-3M melanoma = test system: MALME-3M melanoma
RPMI-8226 leukemia = test system: RPMI-8226 leukemia
786-0 renal = test system: 786-0 renal
DMS 273 small cell lung = test system: DMS 273 small cell lung
SNB-19 CNS = test system: SNB-19 CNS
KM12 colon = test system: KM12 colon
LOX IMVI melanoma = test system: LOX IMVI melanoma
UO-31 renal = test system: UO-31 renal
OVCAR-5 ovarian = test system: OVCAR-5 ovarian
HCT-15 colon = test system: HCT-15 colon
A549 NSCLC = test system: A549 NSCLC
CCRF-CEM leukemia = test system: CCRF-CEM leukemia
HL-60(TB) leukemia = test system: HL-60(TB) leukemia
A498 renal = test system: A498 renal
HCC-2998 colon = test system: HCC-2998 colon

For `COC(=O)C1=C(C(=O)OC)C2(C3C(SC)=CC(C)(C)CC3S1)N(Cc1ccccc1)CCN2Cc1ccccc1` (stereo not given), the TGI (OVCAR-4 ovarian) was over 100 µM, the TGI (SW-620 colon) was over 100 µM and the TGI (SK-MEL-2 melanoma) was over 100 µM. For the same compound, the TGI (HOP-62 NSCLC) was over 100 µM, the TGI (NCI-H522 lung) was over 100 µM and the TGI (SF-295 CNS) was over 100 µM. For the same compound, the TGI (NCI-H226 lung) was over 100 µM, the TGI (NCI-H460 lung) was over 100 µM and the TGI (SF-268 CNS) was over 100 µM. It also gave a TGI (SNB-75 CNS) of over 100 µM, a TGI (SK-OV-3 ovarian) of over 100 µM and a TGI (HT29 colon) of over 100 µM. It also gave a TGI (HCT-116 colon) of over 100 µM, a TGI (KM20L2 colon) of over 100 µM and a TGI (M14 melanoma) of over 100 µM. It also gave a TGI (SK-MEL-5 melanoma) of over 100 µM, a TGI (IGROV1 ovarian) of over 100 µM and a TGI (SNB-78 CNS) of over 100 µM. For the same compound, the TGI (U251 CNS) was over 100 µM, the TGI (UACC-257 melanoma) was over 100 µM and the TGI (UACC-62 melanoma) was over 100 µM. It also gave a TGI (TK-10 renal) of over 100 µM, a TGI (NCI-H23 lung) of over 100 µM and a TGI (OVCAR-3 ovarian) of over 100 µM. It also gave a TGI (K-562 leukemia) of over 100 µM, a TGI (EKVX NSCLC) of over 100 µM and a TGI (ACHN renal) of over 100 µM. It also gave a TGI (DMS 114 small cell lung) of over 100 µM, a TGI (SK-MEL-28 melanoma) of over 100 µM and a TGI (RXF-631 renal) of over 100 µM. The TGI (MOLT-4 leukemia) was over 100 µM, the TGI (XF 498 CNS) was over 100 µM and the TGI (M19-MEL melanoma) was over 100 µM. It also gave a TGI (COLO 205 colon) of over 100 µM, a TGI (HOP-18 NSCLC) of over 100 µM and a TGI (LXFL 529 NSCLC) of over 100 µM. For the same compound, the TGI (RXF 393 renal) was over 100 µM, the TGI (HOP-92 NSCLC) was 16.1 µM and the TGI (SN12C renal) was over 100 µM. For the same compound, the TGI (SF-539 CNS) was over 100 µM, the TGI (OVCAR-8 ovarian) was over 100 µM and the TGI (CAKI-1 renal) was over 100 µM. The TGI (DLD-1 colon) was over 100 µM, the TGI (MALME-3M melanoma) was over 100 µM and the TGI (RPMI-8226 leukemia) was over 100 µM. For the same compound, the TGI (786-0 renal) was over 100 µM, the TGI (DMS 273 small cell lung) was over 100 µM and the TGI (SNB-19 CNS) was over 100 µM. It also gave a TGI (KM12 colon) of over 100 µM, a TGI (LOX IMVI melanoma) of over 100 µM and a TGI (UO-31 renal) of over 100 µM. The TGI (OVCAR-5 ovarian) was over 100 µM, the TGI (HCT-15 colon) was over 100 µM and the TGI (A549 NSCLC) was over 100 µM. The TGI (CCRF-CEM leukemia) was over 100 µM.
`CC(C)OC(=O)c1cc(NC(=O)C(C)(C)C)c(F)cc1Cl` was tested, and the TGI (OVCAR-4 ovarian) was over 100 µM, the TGI (SW-620 colon) was over 100 µM and the TGI (SK-MEL-2 melanoma) was over 100 µM. For the same compound, the TGI (HOP-62 NSCLC) was over 100 µM, the TGI (NCI-H522 lung) was over 100 µM and the TGI (SF-295 CNS) was over 100 µM. For the same compound, the TGI (NCI-H226 lung) was over 100 µM, the TGI (NCI-H460 lung) was over 100 µM and the TGI (SF-268 CNS) was over 100 µM. The TGI (SNB-75 CNS) was over 100 µM, the TGI (SK-OV-3 ovarian) was over 100 µM and the TGI (HT29 colon) was over 100 µM. For the same compound, the TGI (HCT-116 colon) was over 100 µM, the TGI (KM20L2 colon) was over 100 µM and the TGI (HL-60(TB) leukemia) was over 100 µM. It also gave a TGI (A498 renal) of over 100 µM, a TGI (HCC-2998 colon) of over 100 µM and a TGI (M14 melanoma) of over 100 µM. It also gave a TGI (SK-MEL-5 melanoma) of over 100 µM, a TGI (IGROV1 ovarian) of over 100 µM and a TGI (U251 CNS) of over 100 µM. It also gave a TGI (UACC-257 melanoma) of over 100 µM, a TGI (UACC-62 melanoma) of over 100 µM and a TGI (TK-10 renal) of over 100 µM. It also gave a TGI (NCI-H23 lung) of over 100 µM, a TGI (OVCAR-3 ovarian) of over 100 µM and a TGI (K-562 leukemia) of over 100 µM. The TGI (EKVX NSCLC) was over 100 µM, the TGI (ACHN renal) was over 100 µM and the TGI (DMS 114 small cell lung) was over 100 µM. It also gave a TGI (SK-MEL-28 melanoma) of over 100 µM, a TGI (RXF-631 renal) of over 100 µM and a TGI (MOLT-4 leukemia) of over 100 µM. The TGI (XF 498 CNS) was over 100 µM, the TGI (M19-MEL melanoma) was over 100 µM and the TGI (COLO 205 colon) was over 100 µM. It also gave a TGI (HOP-18 NSCLC) of over 100 µM, a TGI (LXFL 529 NSCLC) of over 100 µM and a TGI (RXF 393 renal) of over 100 µM. It also gave a TGI (HOP-92 NSCLC) of over 100 µM, a TGI (SN12C renal) of over 100 µM and a TGI (SF-539 CNS) of over 100 µM. For the same compound, the TGI (OVCAR-8 ovarian) was over 100 µM, the TGI (CAKI-1 renal) was over 100 µM and the TGI (MALME-3M melanoma) was over 100 µM. For the same compound, the TGI (RPMI-8226 leukemia) was over 100 µM, the TGI (786-0 renal) was over 100 µM and the TGI (DMS 273 small cell lung) was over 100 µM. For the same compound, the TGI (SNB-19 CNS) was over 100 µM, the TGI (KM12 colon) was over 100 µM and the TGI (LOX IMVI melanoma) was over 100 µM. It also gave a TGI (UO-31 renal) of over 100 µM, a TGI (OVCAR-5 ovarian) of over 100 µM and a TGI (HCT-15 colon) of over 100 µM. The TGI (A549 NSCLC) was over 100 µM and the TGI (CCRF-CEM leukemia) was over 100 µM.
With `NC(N)=NNC(=O)CCn1[nH]c(=O)c(Cl)c(Cl)c1=O` the TGI (OVCAR-4 ovarian) was over 100 µM, the TGI (SW-620 colon) was over 100 µM and the TGI (SK-MEL-2 melanoma) was over 100 µM. The TGI (HOP-62 NSCLC) was over 100 µM, the TGI (NCI-H522 lung) was over 100 µM and the TGI (SF-295 CNS) was over 100 µM. For the same compound, the TGI (NCI-H226 lung) was over 100 µM, the TGI (NCI-H460 lung) was over 100 µM and the TGI (SF-268 CNS) was over 100 µM. The TGI (SNB-75 CNS) was over 100 µM, the TGI (SK-OV-3 ovarian) was over 100 µM and the TGI (HT29 colon) was over 100 µM. It also gave a TGI (KM20L2 colon) of over 100 µM, a TGI (HL-60(TB) leukemia) of over 100 µM and a TGI (HCC-2998 colon) of over 100 µM. It also gave a TGI (M14 melanoma) of over 100 µM, a TGI (SK-MEL-5 melanoma) of over 100 µM and a TGI (IGROV1 ovarian) of over 100 µM. For the same compound, the TGI (U251 CNS) was over 100 µM, the TGI (UACC-257 melanoma) was over 100 µM and the TGI (UACC-62 melanoma) was over 100 µM. The TGI (TK-10 renal) was over 100 µM, the TGI (NCI-H23 lung) was over 100 µM and the TGI (OVCAR-3 ovarian) was over 100 µM. The TGI (K-562 leukemia) was over 100 µM, the TGI (EKVX NSCLC) was over 100 µM and the TGI (ACHN renal) was over 100 µM. For the same compound, the TGI (DMS 114 small cell lung) was over 100 µM, the TGI (SK-MEL-28 melanoma) was over 100 µM and the TGI (RXF-631 renal) was over 100 µM. The TGI (MOLT-4 leukemia) was over 100 µM, the TGI (XF 498 CNS) was over 100 µM and the TGI (M19-MEL melanoma) was over 100 µM. For the same compound, the TGI (COLO 205 colon) was over 100 µM, the TGI (HOP-18 NSCLC) was over 100 µM and the TGI (LXFL 529 NSCLC) was over 100 µM. It also gave a TGI (RXF 393 renal) of over 100 µM, a TGI (SN12C renal) of over 100 µM and a TGI (SF-539 CNS) of over 100 µM. For the same compound, the TGI (OVCAR-8 ovarian) was over 100 µM, the TGI (CAKI-1 renal) was over 100 µM and the TGI (DLD-1 colon) was over 100 µM. It also gave a TGI (MALME-3M melanoma) of over 100 µM, a TGI (RPMI-8226 leukemia) of over 100 µM and a TGI (786-0 renal) of over 100 µM. The TGI (DMS 273 small cell lung) was over 100 µM, the TGI (SNB-19 CNS) was over 100 µM and the TGI (KM12 colon) was over 100 µM. The TGI (LOX IMVI melanoma) was over 100 µM, the TGI (UO-31 renal) was over 100 µM and the TGI (OVCAR-5 ovarian) was over 100 µM. It also gave a TGI (HCT-15 colon) of over 100 µM, a TGI (A549 NSCLC) of over 100 µM and a TGI (CCRF-CEM leukemia) of over 100 µM.
